Results as given in patent US10669283B2, “Compound and pharmacologically acceptable salt thereof” (MEIJI SEIKA PHARMA CO., LTD., priority 2016, dated 2020).
Where two headings read alike, the source gives them in different places.

Tested on: PDE4
Experiment: PDE4 inhibition, scintillation proximity assay (SPA);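 for PDE4 Inhibitory Activity (concentration for the inhibition rate of 50%): A below 100 nM B 100 to below 1000 nM C 1000 nM or more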
Type: biochemical
Procedure, shortened: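 Compound pre-diluted 1:10 in 50 mM Tris-HCl pH 7.4, 8.3 mM MgCl2, 1.7 mM EGTA, 3 mg/mL BSA, then incubated with PDE4 and [2,8-3H]-cAMP for 120 min at room temperature. Product captured on ZnSO4-containing YSi-SPA beads for 15 min; radioactivity counted against no-enzyme blank and DMSO control.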

[1] = scintillation proximity assay, class symbols, read-out: PDE4 Inhibitory Activity
[2] = scintillation proximity assay (SPA), evaluated as classes A, B, C, read-out: PDE4 Inhibitory Activity (concentration for the inhibition rate of 50%)

SMILES | IC50 [1] | IC50 [2]
O=C(NCc1ccccc1)c1ccc(-c2nccs2)c2oc(N3CC4CC(C3)N4)nc12 [Example 361, N-benzyl-2-(3,6-diazabicyclo [3.1.1]heptan-3-yl)-7-(thiazol-2-yl) benzo oxazole-4-carboxamide] | < 100 nM | –
c1csc(-c2ccc(C3CC3)c3nc(N4CC5CC(C4)N5)oc23)n1 [Example 344, 2-(3,6-diazabicyclo [3.1.1]heptan-3-yl)-4-cyclopropyl-7-(thiazol-2-yl)benzo[d] oxazole] | < 100 nM | –
COCCOC(c1cc(-c2nccs2)c2oc(N3CC4CC(C3)N4)nc2c1)C(F)(F)F (stereo not shown) [Example 154, 2-(3,6-Diazabicyclo[3.1.1]heptan-3-yl)-7-(thiazol-2-yl)-5-(2,2,2-trifluoro-1-(2-methoxyethoxy)ethyl)benzo[d]oxazole] | – | < 100 nM
CC(C)c1cc(-c2nccs2)c2oc(N3CC4CCCC(C3)N4)nc2c1 [Example 24, 2-(3,9-Diazabicyclo[3.3.1]nonan-3-yl)-5-isopropyl-7-(thiazol-2-yl)benzo[d]oxazole] | – | < 100 nM
OC(c1cc(-c2nccs2)c2oc(N3CC4CCCC(C3)N4)nc2c1)C(F)(F)F (stereo not shown) [Example 136, 1-(2-(3,9-Diazabicyclo[3.3.1]nonan-3-yl)-7-(thiazol-2-yl)benzo[d]oxazol-5-yl)-2,2,2-trifluoroethan-1-ol] | – | < 100 nM
COC(c1cc(-c2nccs2)c2oc(N3CC4CCC(C3)N4)nc2c1)C(F)(F)F (stereo not shown) [Example 142, 2-(3,8-Diazabicyclo[3.2.1]octan-3-yl)-7-(thiazol-2-yl)-5-(2,2,2-trifluoro-1-methoxyethyl)benzo[d]oxazole] | – | < 100 nM
CC(O)COC(c1cc(-c2nccs2)c2oc(N3CC4CCC(C3)N4)nc2c1)C(F)(F)F (stereo not shown) [Example 155, 1-(1-(2-(3,8-Diazabicyclo[3.2.1]octan-3-yl)-7-(thiazol-2-yl)benzo[d]oxazol-5-yl)-2,2,2-trifluoroethoxy)propan-2-ol] | – | < 100 nM
OC(O)(c1cc(-c2nccs2)c2oc(N3CC4CC(C3)N4)nc2c1)C(F)(F)F [Example 158, 1-(2-(3,6-Diazabicyclo[3.1.1]heptan-3-yl)-7-(thiazol-2-yl)benzo[d]oxazol-5-yl)-2,2,2-trifluoroethane-1,1-diol] | – | 100 to 1000 nM
FC(F)(F)COc1cc(-c2nccs2)c2oc(N3CC4CCC(C3)N4)nc2c1 [Example 66, 2-(3,8-Diazabicyclo[3.2.1]octan-3-yl)-7-(thiazol-2-yl)-5-(2,2,2-trifluoroethoxy)benzo[d]oxazole] | – | < 100 nM
OC(c1cc(-c2nccs2)c2oc(N3CC4CC(C3)N4)nc2c1OC(F)(F)F)C(F)F (stereo not shown) [Example 292, 1-(2-(3,6-Diazabicyclo[3.1.1]heptan-3-yl)-7-(thiazol-2-yl)-4-(trifluoromethoxy)benzo[d]oxazol-5-yl)-2,2-difluoroethan-1-ol] | – | < 100 nM
CCC(O)c1cc(-c2nccs2)c2oc(N3CC4CCC(C3)N4)nc2c1OC(F)(F)F (stereo not shown) [Example 204, 1-(2-(3,8-Diazabicyclo[3.2.1]octan-3-yl)-7-(thiazol-2-yl)-4-(trifluoromethoxy)benzo[d]oxazol-5-yl)propan-1-ol] | – | < 100 nM
O=C(c1cc(-c2nccs2)c2oc(N3CC4CCC(C3)N4)nc2c1)N1CCC1 [Example 97, (2-(3,8-Diazabicyclo[3.2.1]octan-3-yl)-7-(thiazol-2-yl)benzo[d]oxazol-5-yl)(azetidin-1-yl)methanone] | – | < 100 nM
CC(=O)Nc1cc(-c2nccs2)c2oc(N3CC4CCC(C3)N4)nc2c1 [Example 50, N-(2-(3,8-diazabicyclo[3.2.1]octan-3-yl)-7-(thiazol-2-yl)benzo[d]oxazol-5-yl)acetamide] | – | < 100 nM
OC(c1cc(-c2nccs2)c2oc(N3CC4CCC(C3)N4)nc2c1)C(F)(F)F (stereo not shown) [Example 138, 1-(2-(3,8-Diazabicyclo[3.2.1]octan-3-yl)-7-(thiazol-2-yl)benzo[d]oxazol-5-yl)-2,2,2-trifluoroethan-1-ol] | – | < 100 nM
CC(C)(O)CC(F)(F)Oc1ccc(-c2nccs2)c2oc(N3CC4CC(C3)N4)nc12 [Example 295, 4-((2-(3,6-Diazabicyclo[3.1.1]heptan-3-yl)-7-(thiazol-2-yl)benzo[d]oxazol-4-yl)oxy)-4,4-difluoro-2-methylbutan-2-ol] | – | < 100 nM
CC(O)c1ccc(-c2nccs2)c2oc(N3CC4CCCC(C3)N4)nc12 (stereo not shown) [Example 239, 1-(2-(3,9-Diazabicyclo[3.3.1]nonan-3-yl)-7-(thiazol-2-yl)benzo[d]oxazol-4-yl)ethan-1-ol] | – | < 100 nM
FC(F)(F)Oc1c(Cl)cc(-c2nccs2)c2oc(N3CC4CCCC(C3)N4)nc12 [Example 2, 2-(3,9-Diazabicyclo[3.3.1]nonan-3-yl)-5-chloro-7-(thiazol-2-yl)-4-(trifluoromethoxy)benzo[d]oxazole] | – | < 100 nM

SMILES | IC50 [1] | IC50 [2]
C=CC(F)(F)Oc1ccc(-c2nccs2)c2oc(N3CC4CC(C3)N4)nc12 [Example 351, 2-(3,6-diazabicyclo[3.1.1]heptan-3-yl)-4-((1,1-difluoroallyl)oxy)-7-(thiazol-2-yl)benzo[d] oxazole] | < 100 nM | –
COC(C)(C)c1cc(-c2cscn2)c2oc(N3CC4CC(C3)N4)nc2c1OC(F)(F)F [Example 287, 2-(3,6-Diazabicyclo[3.1.1]heptan-3-yl)-5-(2-methoxypropan-2-yl)-7-(thiazol-4-yl)-4-(trifluoromethoxy)benzo[d]oxazole] | – | < 100 nM
COC(C)(c1cc(-c2nccs2)c2oc(N3CC4CCC(C3)N4)nc2c1OC(F)(F)F)C(F)(F)F (stereo not shown) [Example 215, 2-(3,8-Diazabicyclo[3.2.1]octan-3-yl)-7-(thiazol-2-yl)-5-(1,1,1-trifluoro-2-methoxypropan-2-yl)-4-(trifluoromethoxy)benzo[d]oxazole] | – | < 100 nM
CC(=O)c1ccc(-c2nccs2)c2oc(N3CC4CC(C3)N4)nc12 [Example 244, 1-(2-(3,6-Diazabicyclo[3.1.1]heptan-3-yl)-7-(thiazol-2-yl)benzo[d]oxazol-4-yl)ethan-1-one] | – | < 100 nM
CC(C)(O)C(F)(F)Oc1ccc(-c2ccccn2)c2oc(N3CC4CC(C3)N4)nc12 [Example 289, 1-((2-(3,6-Diazabicyclo[3.1.1]heptan-3-yl)-7-(pyridin-2-yl)benzo[d]oxazol-4-yl)oxy)-1,1-difluoro-2-methylpropan-2-ol] | – | < 100 nM
CC(C)(O)c1cc(-c2cscn2)c2oc(N3CC4CC(C3)N4)nc2c1OC(F)(F)F [Example 288, 2-(2-(3,6-Diazabicyclo[3.1.1]heptan-3-yl)-7-(thiazol-4-yl)-4-(trifluoromethoxy)benzo[d]oxazol-5-yl)propan-2-ol] | – | < 100 nM
CCOC(=O)c1cc(-c2nccs2)c2oc(N3CC4CC(C3)N4)nc2c1OC(F)(F)F [Example 187, Ethyl 2-(3,6-diazabicyclo[3.1.1]heptan-3-yl)-7-(thiazol-2-yl)-4-(trifluoromethoxy)benzo[d]oxazole-5-carboxylate] | – | < 100 nM
ON1C2CCC1CN(c1nc3c(OC(F)(F)F)c(Cl)cc(-c4nccs4)c3o1)C2 [Example 375, 3-(5-chloro-7-(thiazol-2-yl)-4-(trifluoro-methoxy)benzo[d]oxazol-2-yl)-3,8-diazabicyclo[3.2.1] octan-8-ol] | < 100 nM | –
CC(C)(O)c1cc(-c2cscn2)c2oc(N3CC4CCC(C3)N4)nc2c1OC(F)(F)F [Example 291, 2-(2-(3,8-Diazabicyclo[3.2.1]octan-3-yl)-7-(thiazol-4-yl)-4-(trifluoromethoxy)benzo[d]oxazol-5-yl)propan-2-ol] | – | < 100 nM
OCC(CO)COc1cc(-c2nccs2)c2oc(N3CC4CCC(C3)N4)nc2c1 [Example 71, 2-(((2-(3,8-Diazabicyclo[3.2.1]octan-3-yl)-7-(thiazol-2-yl)benzo[d]oxazol-5-yl)oxy)methyl)propane-1,3-diol] | – | < 100 nM
OC1(COC(c2ccc(-c3cscn3)c3oc(N4CC5CC(C4)N5)nc23)C(F)(F)F)CC1 (stereo not shown) [Example 286, 1-((1-(2-(3,6-Diazabicyclo[3.1.1]heptan-3-yl)-7-(thiazol-4-yl)benzo[d]oxazol-4-yl)-2,2,2-trifluoroethoxy)methyl)cyclopropan-1-ol] | – | < 100 nM
COC(C)c1ccc(-c2nccs2)c2oc(N3CC4CCC(C3)N4)nc12 (stereo not shown) [Example 242, 2-(3,8-Diazabicyclo[3.2.1]octan-3-yl)-4-(1-methoxyethyl)-7-(thiazol-2-yl)benzo[d]oxazole] | – | < 100 nM
FC(F)(F)c1c(Cl)cc(-c2nccs2)c2oc(N3CC4COCC(C3)N4)nc12 [Example 19, 7-(5-Chloro-7-(thiazol-2-yl)-4-(trifluoromethyl)benzo[d]oxazol-2-yl)-3-oxa-7,9-diazabicyclo[3.3.1]nonane] | – | < 100 nM
CS(=O)(=O)c1cc(-c2nccs2)c2oc(N3CC4CCCC(C3)N4)nc2c1 [Example 47, 2-(3,9-Diazabicyclo[3.3.1]nonan-3-yl)-5-(methylsulfonyl)-7-(thiazol-2-yl)benzo[d]oxazole] | – | < 100 nM
CCOC(=O)c1cc(-c2nccs2)c2oc(N3CC4CCCC(C3)N4)nc2c1C(F)(F)F [Example 164, Ethyl 2-(3,9-diazabicyclo[3.3.1]nonan-3-yl)-7-(thiazol-2-yl)-4-(trifluoromethyl)benzo[d]oxazole-5-carboxylate] | – | < 100 nM
COC(C)(c1cc(-c2nccs2)c2oc(N3CC4CC(C3)N4)nc2c1OC(F)(F)F)C(F)(F)F (stereo not shown) [Example 214, 2-(3,6-Diazabicyclo[3.1.1]heptan-3-yl)-7-(thiazol-2-yl)-5-(1,1,1-trifluoro-2-methoxypropan-2-yl)-4-(trifluoromethoxy)benzo[d]oxazole] | – | < 100 nM
CC(C)(O)C(F)(F)Oc1ccc(-c2cscn2)c2oc(N3CC4CCC(C3)N4)nc12 [Example 308, 1-((2-(3,8-Diazabicyclo[3.2.1]octan-3-yl)-7-(thiazol-4-yl)benzo[d]oxazol-4-yl)oxy)-1,1-difluoro-2-methylpropan-2-ol] | – | < 100 nM
